Measured values from patent US20040071718A1, “Local nasal immunotherapy for allergen-induced airway inflammation” (priority 2002, published 2004).

B1: FIP: fungal immunomodulatory protein isolated from Flammalina velutipes, amino acid sequence ID No. 3 (protein)
chain: SATSLTFQLAVLVKKIDFDYTPNWGRGTPSSYIDNLTFPKVLTDKKYSYRVVVNGSDLGVESNFAVTPSGGQTINFLQYNKGYGVADTKTIQVFVVIPDTGNSEEYIIAEWKKT
modifications: Flammalina velutipes

Legend:
Type in all cases: in vivo
Balb/c mice [1] = assay: IL-5 and IFN-γ levels in sera and BALF (ELISA) after LNIT; details: for IL-5 levels in sera: Example 1, FIG. 3A; for IFN-γ levels in sera: Example 1, FIG. 3B; for IFN-γ / IL-5: Example 2, mean ± SEM, n = 6
Description: Male Balb/c mice were obtained from the National Laboratory Breeding Research Center in Taiwan and were raised in a specific pathogen-free environment. The mice used were between six and eight weeks of age. Groups of six mice were caged separately according to their treatment.
(§1) Mice were immunized by way of an intraperitoneal (IP) injection of 1 μg/0.1 mL rDp2 emulsified in 4.0 mg/0.062mL aluminum hydroxide Al(OH)3 (Whitehall Lab Ltd. Punchbowl, NSW, Australia) on day 0 and day 7. Following immunization, local nasal immunotherapy (LNIT) was conducted daily from day 14 to day 35 with Dp2 28-40, Dp2 28-40A, FIP alone or FIP mixed with either Dp2 28-40 or Dp2 28-40A (FIP, 50 μg/mouse/day; Dp2 peptide, 1 μg/20 μL) in PBS with 10% glycerol. Normal saline (NS) and irrelevant allergen Bt were used as a negative control. […] On day 28, mice were lightly anesthetized with an IP injection of 60 mg/kg of sodium pentobarbital (Sigma Chemical Co., St Louis, Mo., U.S.A.) and inoculated intratracheally (IT) with 1 μg/50 μL of rDp 2 on day 28 and day 35. Two days subsequent to the second IT inoculation, the mice were sacrificed following the assessment of their pulmonary function (FIG. 1).
IFN-γ and IL-5 were measured using commercially-available ELISA kits, using a specific mouse monoclonal Ab that recognized different epitopes of the cytokine molecules. The lowest detector range was 10 pg/mL. Given that the BALF was considered to be at too diluted a concentration, IL-4 was not measured.

Balb/c mice [2] = assay: Lung pathology (HE stain) after LNIT; details: lung tissue two days after IT with rDp2; for pathology: inflammatory cell infiltration and epithelium damage in the airway: Example 1, FIGS. 6A-6F
Excerpt: FIGS. 6A-6F are photographs showing the pathology of different groups of mice after LNIT. The lung tissues were obtained two days after IT with rDp2. […] (HE stain, ×400).
FIGS. 9A-1˜9F-2 are photographs showing the pathology of different groups of mice following LNIT. The lung tissues were obtained two days subsequent to IT inoculation with rDp2. FIGS. 9A-1, -2: naive mice; FIGS. 9B-1, -2: NS-treated mice; FIGS. 9C-1, -2: DEX-treated mice; FIGS. 9D-1, -2: FIP-fve treated mice; FIGS. 9E-1, -2: Dp2 28-40A+FIP-fve treated mice; and FIGS. 9F-1, -2: Dp2 28-40+FIP-fve treated mice. FIGS. 9A-1, 9B-1, 9C-1, 9D-1, 9E-1 and 9F-1: HE stain, 100×; 9A-2, 9B-2, 9C-2, 9D-2, 9E-2, 9F-2: HE stain, 400×
as §1

Balb/c mice [3] = assay: Free radical production in BALF (chemiluminescence) after LNIT; details: FIG. 4, chemiluminescence, expressed as counts/10 seconds, compared to NS control
Description: as §1
Using chemiluminescence, free radicals in the BAL fluid were measured immediately after each experiment. The total amounts of free radical were detected and expressed as counts/10 seconds.

Balb/c mice [4] = assay: Pulmonary function: airway hypersensitivity to methacholine (Penh, barometric plethysmograph) after LNIT; details: compared to NS; for Penh after methacholine challenge, early phase: Example 1, FIG. 5A, 30 min after rDp2 IT challenge; for Penh after methacholine challenge, late phase: Example 1, FIG. 5B, 24hrs after rDp2 IT challenge
Description: as §1
Each mouse was placed inside a barometric plethysmograph (Buxco Electronics, Troy, N.Y.). The plethysmograph has two chambers: one is the main or animal chamber (ID 7.5 cm and 5.5 cm height) and the other is the reference chamber (ID 7.5 cm and 3.5 cm height). A differential pressure transducer was employed to detect the pressure difference between the two chambers. The pressure signal was amplified, digitized via an A/D convert card, and sent to a computer with a BioSystem XA program (Buxco, Electronics, Troy, N.Y.), which sampled and calculated the desired respiratory parameters. These parameters were enhanced pause (Penh), tidal volume, breathing frequency, peak inspiratory flow, peak expiratory flow, end-inspiratory pause, and end-expiratory pause.
Aerosol was generated by placing 5 mL of saline or methacholine (Sigma, 1.56 to 25.00 mg/mL) solution in the cup of an ultrasonic nebulizer (DeVilbiss, Somerset, Pa.). It was delivered via a connecting tube and a three-way connector to the animal chamber of the plethysmograph (Hamelmann E, et al. Am J Respir Crit Care Med. 1997;156:766-75). The median size of the aerosol was approximately 3 μm and the range of the sizes was from 1 to 5 μm, according to the manufacturers information. The aerosol usually filled the chamber within 15-20 sec. At first, each mouse inhaled saline aerosol for 3 min. Then the respiratory parameters were measured for 3 min. Then, inhalation of the saline aerosol was replaced by inhalation of the aerosol of methacholine solution for 3 min. In both cases, the aerosol in the chamber was cleared immediately after the exposure. Respiratory parameters were then measured for 3 min following the inhalation of methacholine. A dose-response curve for methacholine was calculated starting from a low dose of 0.031 mg/dL and moving to a higher dose of 25 mg/dL. There was a 15 min interval between exposures. The percentage changes of Penh obtained from each dose of mechacholine were accumulated area under the curve and the values were calculated as means±SEM. Differences in parameters among groups were analyzed by variance.

Row | Molecule | IL-5 levels in sera (Balb/c mice [1]; compared to NS treated mice) | IFN-γ levels in sera (Balb/c mice [1]; compared to NS treated mice) | IL-5 levels in BALF (Balb/c mice [1]; Example 1, FIG. 3C, compared to NS treated mice) | IFN-γ levels in BALF (Balb/c mice [1]; Example 1, FIG. 3D, compared to NS treated mice) | pathology: inflammatory cell infiltration and epithelium damage in the airway (Balb/c mice [2]) | free radical production in the BAL fluid (Balb/c mice [3]) | Penh after methacholine challenge, early phase (Balb/c mice [4]) | Penh after methacholine challenge, late phase (Balb/c mice [4]) | IFN-γ (Balb/c mice [1]; BALF) [pg/mL] | IL-5 (Balb/c mice [1]; BALF) [pg/mL] | IFN-γ (Balb/c mice [1]; Sera) [pg/mL] | IL-5 (Balb/c mice [1]; Sera) [pg/mL] | pathology: inflammatory-cell infiltration and epithelial damage in the airways (Balb/c mice [2]; Example 2, FIGS. 9A-9F) | penh, early phase (Balb/c mice [4]; Example 2, FIG. 8A, 30 min after rDp2 intratracheal challenge) | penh, late phase (Balb/c mice [4]; Example 2, FIG. 8B, 24 hr)
1 | Dp2 28-40: Dermatophoides pteronyssinus group 2 (Dp2) epitope peptide, residues 28-40, amino acid sequence ID No. 1 (IIHRGKPFQLEAV; listed as Dermatophoides pteronyssinus) | decreased | Significantly increased | significant reduction | significant increase | reductions in airway inflammation | significantly inhibited | significantly decreased | significantly decreased | – | – | – | – | – | – | –
2 | Dp2 28-40A: altered TCR ligand of Dp2 28-40, residues at positions 34 and 36 substituted by alanine; amino acid sequence ID No. 2 (IIHRGKAFALEAV; listed as Dermatophoides pteronyssinus) | decreased | Significantly increased | – | – | reductions in airway inflammation | – | significantly decreased | significantly decreased | – | – | – | – | – | – | –
3 | B1 | – | – | – | – | – | – | – | – | 8.3 ± 0.4 | 19.3 ± 1.9 | 52.0 ± 1.9 | 77.6 ± 1.9 | reduction in the level of airway inflammation | significantly decreased | did not reach a statistically significant level
